In patent US20110152085A1, “Herbicidal Compositions Comprising Flufenacet” (BAYER CROPSCIENCE AG, priority 2009, published 2011):

Tests used:
STEME [1] = experiment: Greenhouse trial, PE application on sensitive and resistant biotypes; type: in vivo, Stellaria media; conditions: g of AS/ha: (A) 120, (B) 600, iodosulfuron 10; for STEME resistant activity (visual, scale 0-100%): resistant biotype; for STEME sensitive activity (visual, scale 0-100%): sensitive biotype
Method: (§1) In the standard design of the test, seeds of various broad-leaved weed and weed grass biotypes (origins) were sown in a 8-13 cm diameter pot filled with natural soil of a standard field soil (loamy silt; non-sterile) and covered with a covering soil layer of about 1 cm. The pots were then cultivated in a greenhouse (12-16 h of light, temperature day 20-22° C., night 15-18° C.) until the time of application. The pots were treated on a laboratory track sprayer with spray liquors comprising the compositions according to the invention, mixtures of the prior art or components used individually. Application of the active compounds or active compound combinations formulated as WG, WP, EC or otherwise was carried out at the appropriate growth stages of the plants. The application rate for the spray application was 100-600 l of water/ha. After the treatment, the plants were returned to the greenhouses.
(§2) About 3 weeks after the application, the soil action or/and foliar action was assessed visually according to a scale of 0-100% in comparison to an untreated comparative group: 0%=no noticeable effect compared to the untreated comparative group; 100%=full effect compared to the untreated comparative group.
(§3) (notes: the term “seeds” also includes vegetative propagation forms such as, for example, rhizome pieces; abbreviations used: h light=hours of illumination, g of AS/ha=gram of active substance per hectare, l/ha=liter per hectare, S=sensitive, R=resistant) • 1. Pre-emergence action against weeds: seeds of various broad-leaved weed and weed grass biotypes (origins) were sown in a 8-13 cm diameter pot filled with natural soil of a standard field soil (loamy silt; non-sterile) and covered with a covering soil layer of about 1 cm. The pots were then cultivated in a greenhouse (12-16 h of light, temperature day 20-22° C., night 15-18° C.) until the time of application. The pots were treated at the BBCH stage 00-10 of the seeds/plants on a laboratory track sprayer with spray liquors comprising the compositions according to the invention, mixtures or components used individually, as WG, WP, EC or other formulations. The application rate for the spray application was 100-600 l of water/ha. After the treatment, the plants were returned to the greenhouses and, when required, treated with fertilizer and watered. • 2. Post-emergence action against weeds: seeds of various broad-leaved weed and weed grass biotypes (origins) were sown in a 8-13 cm diameter pot filled with natural soil of a standard field soil (loamy silt; non-sterile) and covered with a covering soil layer of about 1 cm. The pots were then cultivated in a greenhouse (12-16 h of light, temperature day 20-22° C., night 15-18° C.) until the time of application. The pots were treated at various BBCH stages between 11-25 of the seeds/plants, i.e. generally between two to three weeks after the start of the cultivation, on a laboratory track sprayer with spray liquors comprising the compositions according to the invention, mixtures or components used individually, as WG, WP, EC or other formulations. The application rate for the spray application was 100-600 l of water/ha. After the treatment, the plants were returned to the greenhouses and, when required, treated with fertilizer and watered. • 3. Pre-emergence action against weeds with and without incorporation of active compound: seeds of various broad-leaved weed and weed grass biotypes (origins) were sown in a 8-13 cm diameter pot filled with natural soil of a standard field soil (loamy silt; non-sterile). […]

MATCH = experiment: as above; type: in vivo, Matricaria chamomilla; conditions: g of AS/ha: (A) 120, (B) 600, iodosulfuron 10; for MATCH resistant activity (visual, scale 0-100%): resistant biotype; for MATCH sensitive activity (visual, scale 0-100%): sensitive biotype
Method: as §1, §2, §3

VIOAR [2] = experiment: Greenhouse trial, pre-emergence (PE) soil application, action against weeds; type: in vivo, Viola arvensis; conditions: g of AS/ha: (A) 90, (B) 300, (C) mefenpyr 300, about 3 weeks after application
Method: as §1
(§4) About 3 weeks after the application, the soil action or/and foliar action was assessed visually according to a scale of 0-100% in comparison to an untreated comparative group: 0%=no noticeable effect compared to the untreated comparative group; 100%=full effect compared to the untreated comparative group. […]

TRZAW [3] = experiment: Greenhouse trial, selective pre-emergence action (PE application), crop plant; type: in vivo, Triticum aestivum, winter wheat; conditions: g of AS/ha: (A) 90, (B) 300, (C) mefenpyr 300
Method: as §1, §4

TRZAS [4] = experiment: as above; type: in vivo, Triticum aestivum, summer wheat
Method: as §1, §2
(§5) (notes: the term “seeds” also includes vegetative propagation forms such as, for example, rhizome pieces; abbreviations used: h light=hours of illumination, g of AS/ha=gram of active substance per hectare, l/ha=liter per hectare, S=sensitive, R=resistant) • 1. Pre-emergence action against weeds: seeds of various broad-leaved weed and weed grass biotypes (origins) were sown in a 8-13 cm diameter pot filled with natural soil of a standard field soil (loamy silt; non-sterile) and covered with a covering soil layer of about 1 cm. The pots were then cultivated in a greenhouse (12-16 h of light, temperature day 20-22° C., night 15-18° C.) until the time of application. The pots were treated at the BBCH stage 00-10 of the seeds/plants on a laboratory track sprayer with spray liquors comprising the compositions according to the invention, mixtures or components used individually, as WG, WP, EC or other formulations. The application rate for the spray application was 100-600 l of water/ha. After the treatment, the plants were returned to the greenhouses and, when required, treated with fertilizer and watered. • 2. Post-emergence action against weeds: seeds of various broad-leaved weed and weed grass biotypes (origins) were sown in a 8-13 cm diameter pot filled with natural soil of a standard field soil (loamy silt; non-sterile) and covered with a covering soil layer of about 1 cm. The pots were then cultivated in a greenhouse (12-16 h of light, temperature day 20-22° C., night 15-18° C.) until the time of application. […]

HORVW [5] = experiment: as above; type: in vivo, Hordeum vulgare, winter barley; conditions: g of AS/ha: (A) 90, (B) 300, (C) mefenpyr 300
Method: as §1, §4

VIOAR [6] = experiment: Greenhouse trial, incorporation of active compound into the soil covering layer, action against weeds; type: in vivo, Viola arvensis; conditions: g of AS/ha: (A) 90, (B) 300, (C) mefenpyr 300
Method: as §1, §4

TRZAW [7] = experiment: Greenhouse trial, incorporation of active compound into the soil covering layer, crop plant; type: in vivo, Triticum aestivum, winter wheat; conditions: g of AS/ha: (A) 90, (B) 300, (C) mefenpyr 300
Method: as §1, §4

TRZAS [8] = experiment: as above; type: in vivo, Triticum aestivum, summer wheat; conditions: g of AS/ha: (A) 90, (B) 300, (C) mefenpyr 300
Method: as §1, §4

HORVW [9] = experiment: as above; type: in vivo, Hordeum vulgare, winter barley; conditions: g of AS/ha: (A) 90, (B) 300, (C) mefenpyr 300
Method: as §1, §4

ALOMY = experiment: Greenhouse trial, post-emergence (PO) action against weeds; type: in vivo, Alopecurus myosuroides; conditions: PO application; g of AS/ha: (A) 120, (B) 600
Method: as §1, §4

POAAN = experiment: as above; type: in vivo, Poa annua; conditions: PO application; g of AS/ha: (A) 120, (B) 600
Method: as §1, §4

AVEFA [10] = experiment: as above; type: in vivo, Avena fatua; conditions: PO application; g of AS/ha: (A) 120, (B) 600
Method: as §1, §4

HORVS = experiment: Greenhouse trial, selective post-emergence (PO) action, crop plant; type: in vivo, Hordeum vulgare, summer barley; conditions: PO application, g of AS/ha: (A) 120, (B) 600
Method: as §1, §4

STEME [11] = experiment: Greenhouse trial, PE application (comparison with pre-sowing method), weeds; type: in vivo, Stellaria media; conditions: g of AS/ha: (A) 90, (B) 300
Method: as §1, §4

AVEFA [12] = experiment: as above; type: in vivo, Avena fatua; conditions: g of AS/ha: (A) 90, (B) 300
Method: as §1, §4

STEME [13] = experiment: Greenhouse trial, pre-sowing application 7 days prior to sowing, weeds; type: in vivo, Stellaria media; conditions: g of AS/ha: (A) 90, (B) 300
Method: as §1, §4

AVEFA [14] = experiment: as above; type: in vivo, Avena fatua; conditions: g of AS/ha: (A) 90, (B) 300
Method: as §1, §4

TRZAS [15] = experiment: Greenhouse trial, pre-sowing application 7 days prior to sowing, crop plant; type: in vivo, Triticum aestivum, summer wheat; conditions: g of AS/ha: (A) 90, (B) 300
Method: as §1, §4

LOLPE = experiment: Greenhouse trial, PE application with different soil types; type: in vivo, Lolium perenne; conditions: g of AS/ha: (A) 90, (B) 300
Method: as §1, §2, §5

[16] = g of AS/ha: (A) 90, (B) 300, (C) mefenpyr 300
[17] = g of AS/ha: (A) 90, (B) 300, Table 3

Row | Structure (SMILES) | STEME resistant activity (visual, scale 0-100%) (STEME [1]) | STEME sensitive activity (visual, scale 0-100%) (STEME [1]) | MATCH resistant activity (visual, scale 0-100%) (MATCH) | MATCH sensitive activity (visual, scale 0-100%) (MATCH) | VIOAR activity (visual, scale 0-100%) (VIOAR [2]) | TRZAW activity (visual, scale 0-100%) (TRZAW [3]) | TRZAS activity (visual, scale 0-100%) (TRZAS [4]; [16]) | TRZAS activity (visual, scale 0-100%) (TRZAS [4]; [17]) | HORVW activity (visual, scale 0-100%) (HORVW [5]) | VIOAR activity (visual, scale 0-100%) (VIOAR [6]) | TRZAW activity (visual, scale 0-100%) (TRZAW [7]) | TRZAS activity (visual, scale 0-100%) (TRZAS [8]) | HORVW activity (visual, scale 0-100%) (HORVW [9]) | ALOMY activity (visual, scale 0-100%) (ALOMY) | POAAN activity (visual, scale 0-100%) (POAAN) | AVEFA activity (visual, scale 0-100%) (AVEFA [10]) | HORVS activity (visual, scale 0-100%) (HORVS) | STEME activity (visual, scale 0-100%) (STEME [11]) | AVEFA activity (visual, scale 0-100%) (AVEFA [12]) | STEME activity (visual, scale 0-100%) (STEME [13]) | also measured
1 | COc1nc(C)nc(NC(=O)NS(=O)(=O)c2cc(I)ccc2C(=O)O)n1 [(C) iodosulfuron] | 40% | 90% | 60% | 100% |  |  |  |  |  |  |  |  |  |  |  |  |  |  |  |  | 
2 | CCCN(CCC)c1c([N+](=O)[O-])cc(C(F)(F)F)cc1[N+](=O)[O-] [(B) trifluralin, 2,6-dinitro-N,N-dipropyl-4-(trifluoromethyl)benzenamine] | 20% | 20% | 20% | 20% | 0% | 20% | 0% | 0% | 0% | 10% | 100% | 90% | 60% | 30% | 40% | 20% | 20% | 10% | 70% | 30% | AVEFA activity (visual, scale 0-100%) (AVEFA [14]): 60%; TRZAS activity (visual, scale 0-100%) (TRZAS [15]): 20%; LOLPE IU soil activity (visual, scale 0-100%) (LOLPE): 55%; LOLPE IU/EC73 soil activity (visual, scale 0-100%) (LOLPE): 0%
3 | CC(C)N(C(=O)COc1nnc(C(F)(F)F)s1)c1ccc(F)cc1 [(A) flufenacet, N-(4-fluorophenyl)-N-(1-methylethyl)-2-[[5-(trifluoromethyl)-1,3,4-thiadiazol-2-yl]oxy]acetamide] | 0% | 0% | 50% | 50% | 0% | 30% | 20% | 20% | 20% | 0% | 60% | 50% | 60% | 65% | 60% | 70% | 40% | 0% | 80% | 35% | AVEFA activity (visual, scale 0-100%) (AVEFA [14]): 70%; TRZAS activity (visual, scale 0-100%) (TRZAS [15]): 50%; LOLPE IU soil activity (visual, scale 0-100%) (LOLPE): 95%; LOLPE IU/EC73 soil activity (visual, scale 0-100%) (LOLPE): 74%
